Among the data in PubChem BioAssay (NCI) are TGI and GI50 values, retold here.

Some test systems named below: A498 renal; NCI-H23 lung; CAKI-1 renal; IGROV1 ovarian; HCT-116 colon; OVCAR-4 ovarian; CCRF-CEM leukemia; HOP-92 NSCLC; MALME-3M melanoma; MOLT-4 leukemia.
Experiment in all cases: NCI tumour cell line growth inhibition, 48 h

Molecules are shown by their SMILES. Several values for one entry are separate records, joined by “and”; a condition that tells them apart may be missing. Identical values can stand only once.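 Cells were grown in 96-well plates and exposed to each compound for 48 hours at five concentrations; endpoints were interpolated linearly between bracketing concentrations, or set to the highest concentration if not reached. The concentration for 50% growth inhibition is given as GI50. At the TGI there is no net growth.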

For the compound `C/C(=N\NS(=O)(=O)c1ccc(C)cc1)c1c(O)cc(C)oc1=O`, the TGI in the test on A498 renal, in the test with NCI-H23 lung, in the test on CAKI-1 renal, in the test with IGROV1 ovarian, in the test on HCT-116 colon and in the test on OVCAR-4 ovarian was greater than 100 µM in each case. Further, the TGI in the test on CCRF-CEM leukemia, in the test on HOP-92 NSCLC, in the test on MALME-3M melanoma and in the test on MOLT-4 leukemia was greater than 100 µM in each case.

On to `NC(=O)c1cc(Cl)ccc1NC(=O)c1ccccc1-c1ccccc1`, for which the GI50 in the test on A498 renal was 0.155 µM; with NCI-H23 lung, 2.01 µM; with CAKI-1 renal it was 0.735 µM; in the test with IGROV1 ovarian, 1.55 µM; in the test with HCT-116 colon, 0.43 µM; with OVCAR-4 ovarian it was 0.798 µM. Also, the GI50 in the test with CCRF-CEM leukemia is 0.499 µM; in the test with HOP-92 NSCLC it was 3.96 µM; with MALME-3M melanoma, 0.62 µM; in the test on MOLT-4 leukemia, 0.743 µM. Also, the TGI is 9.78 µM in the test with A498 renal; greater than 100 µM in the test on NCI-H23 lung; 64.3 µM in the test on CAKI-1 renal; greater than 100 µM with IGROV1 ovarian; 65.1 µM with HCT-116 colon; greater than 100 µM with OVCAR-4 ovarian. For the same compound, the TGI is greater than 100 µM in the test with CCRF-CEM leukemia, 61.5 µM in the test with HOP-92 NSCLC, 62.9 µM in the test with MALME-3M melanoma and greater than 100 µM in the test with MOLT-4 leukemia.

On to `CCC(O)(c1ccc(OC)cc1)C(c1ccc(OCc2ccccc2)cc1)c1ccc(OCc2ccccc2)cc1` (stereo unspecified), for which the TGI in the test on A498 renal, in the test on NCI-H23 lung, in the test on CAKI-1 renal, in the test with IGROV1 ovarian, with HCT-116 colon and in the test on OVCAR-4 ovarian was greater than 100 µM in each case. Besides, the TGI with CCRF-CEM leukemia, in the test on HOP-92 NSCLC, with MALME-3M melanoma and in the test with MOLT-4 leukemia was greater than 100 µM in each case.

Turning to `CC(C(=O)c1ccccc1)C1(O)C(=O)Nc2ccccc21` (stereo unspecified), the TGI in the test on A498 renal, with NCI-H23 lung, in the test on CAKI-1 renal, with IGROV1 ovarian, in the test on HCT-116 colon and in the test on OVCAR-4 ovarian was greater than 100 µM each time. Further, the TGI in the test with CCRF-CEM leukemia, in the test on HOP-92 NSCLC, with MALME-3M melanoma and in the test on MOLT-4 leukemia was greater than 100 µM in each case.

For the compound `CC1OC(O[C@H]2/C=C/C=C/C=C/C=C/C=C/C=C/C=C/[C@H](C)[C@@H](O)[C@@H](C)[C@H](C)OC(=O)C[C@H](O)C[C@H](O)CC[C@@H](O)[C@H](O)C[C@H](O)C[C@]3(O)C[C@H](O)[C@@H](C(=O)O)[C@H](C2)O3)C(O)C(N)C1O` (stereo partly specified), the GI50 with A498 renal is 10.4 µM; in the test on NCI-H23 lung, 14.3 µM; in the test on CAKI-1 renal it was 12.7 µM; with CCRF-CEM leukemia, 9.99 µM; in the test with MALME-3M melanoma it was 5.47 µM; in the test on MOLT-4 leukemia, 29.2 µM. The TGI in the test with A498 renal stood at 25 µM; in the test with NCI-H23 lung, 34.5 µM; with CAKI-1 renal it was 41.7 µM; in the test on IGROV1 ovarian, 20.7 µM; with HCT-116 colon it was 50.2 µM; with OVCAR-4 ovarian, 51.2 µM. Moreover, the TGI came to 48.6 µM in the test with CCRF-CEM leukemia, 52.9 µM in the test on HOP-92 NSCLC, 15.3 µM with MALME-3M melanoma and 75.4 µM in the test on MOLT-4 leukemia.

In the case of `COc1cc2c(Nc3ccc(Br)cc3F)ncnc2cc1OCC1CCN(C)CC1`, the GI50 is 0.712 µM and 2.03 µM in the test on A498 renal; 9.57 µM and > 10 µM in the test on NCI-H23 lung; 0.729 µM and 1.28 µM in the test with CAKI-1 renal; 0.408 µM and 0.398 µM in the test with IGROV1 ovarian; 3.8 µM and 4.32 µM in the test with HCT-116 colon; 2.92 µM and 5.59 µM with OVCAR-4 ovarian. The GI50 is 4.71 µM and > 10 µM in the test with CCRF-CEM leukemia; 0.527 µM and 0.454 µM with HOP-92 NSCLC; 1.83 µM and 4.47 µM in the test with MALME-3M melanoma; 3.97 µM and 9.42 µM in the test on MOLT-4 leukemia. The TGI in the test with A498 renal was 4.36 µM and > 10 µM; in the test with NCI-H23 lung, 21.9 µM and > 10 µM; with CAKI-1 renal it was 5.24 µM and > 10 µM; with IGROV1 ovarian it was 3.61 µM and 5.27 µM; in the test with HCT-116 colon, 15.1 µM and > 10 µM; in the test on OVCAR-4 ovarian, 14.8 µM and > 10 µM. In addition, the TGI is 17.5 µM and > 10 µM with CCRF-CEM leukemia; 4.07 µM and 6.91 µM in the test with HOP-92 NSCLC; 3.85 µM and > 10 µM in the test on MALME-3M melanoma; 15.5 µM and > 10 µM with MOLT-4 leukemia.

Take `NCC1OC(n2cnc3c(=O)[nH]c(N)nc32)C(O)C1O` (stereo unspecified): the TGI in the test on A498 renal, in the test on NCI-H23 lung, in the test with CAKI-1 renal, in the test on IGROV1 ovarian, in the test with HCT-116 colon and in the test with OVCAR-4 ovarian was greater than 100 µM throughout. Moreover, the TGI with CCRF-CEM leukemia, in the test with HOP-92 NSCLC, with MALME-3M melanoma and in the test with MOLT-4 leukemia was greater than 100 µM in each case.

For `O=C(O[C@H]1CN[C@H](C#Cc2cc3ncnc(Nc4ccc(OCc5cccc(F)c5)c(Cl)c4)c3s2)C1)N1CCOCC1`, the GI50 in the test with A498 renal was 1.76 µM; in the test on NCI-H23 lung it was 9.7 µM; in the test on CAKI-1 renal it was 3.17 µM; in the test on IGROV1 ovarian, 2.69 µM; in the test with HCT-116 colon, 7.99 µM; with OVCAR-4 ovarian, 10.3 µM. Moreover, the GI50 in the test with CCRF-CEM leukemia is 2.2 µM; with HOP-92 NSCLC it was 1.45 µM; in the test on MALME-3M melanoma, 4.95 µM; in the test on MOLT-4 leukemia it was 6 µM. The TGI with A498 renal was 8.21 µM; in the test with NCI-H23 lung, greater than 25 µM; in the test on CAKI-1 renal, greater than 25 µM; in the test on IGROV1 ovarian it was greater than 25 µM; in the test on HCT-116 colon, greater than 25 µM; in the test on OVCAR-4 ovarian, greater than 25 µM. The TGI in the test with CCRF-CEM leukemia was greater than 22 µM; in the test on HOP-92 NSCLC, 9.96 µM; in the test with MALME-3M melanoma it was 10.2 µM; in the test with MOLT-4 leukemia, 23.2 µM.

For the compound `N/C(=N\c1nc2ccccc2s1)NC(=O)Nc1ccccc1Cl`, the GI50 was 0.0818 µM in the test with A498 renal; 0.305 µM in the test with NCI-H23 lung; 0.0624 µM with CAKI-1 renal; 0.134 µM with IGROV1 ovarian; 0.0852 µM in the test with HCT-116 colon; 2.71 µM with OVCAR-4 ovarian. For the same compound, the GI50 in the test with CCRF-CEM leukemia was 0.11 µM; with HOP-92 NSCLC, 0.356 µM; with MALME-3M melanoma it was 0.667 µM; in the test on MOLT-4 leukemia, 0.167 µM. Also, the TGI is 0.579 µM in the test on A498 renal; 18.2 µM in the test on NCI-H23 lung; 15.5 µM in the test on CAKI-1 renal; 21.6 µM with IGROV1 ovarian; 3.5 µM in the test on HCT-116 colon; 8.53 µM with OVCAR-4 ovarian. The TGI in the test on CCRF-CEM leukemia is greater than 42.8 µM; in the test on HOP-92 NSCLC, 56.4 µM; with MALME-3M melanoma, 13.2 µM; with MOLT-4 leukemia it was greater than 56.6 µM.
